The source of these data is US9403774B2, “Guanidine and amine substituted tetrahydroisoquinoline compounds as factor xia inhibitors” (BRISTOL-MYERS SQUIBB COMPANY, priority 2012, dated 2016).

As usually defined, the Ki is a dissociation constant, usually derived from enzyme kinetics or from competition with a known ligand. A lower Ki goes with tighter binding.

Molecules are shown by their SMILES. Counter-ions that a name gives are not always drawn.

Sequence of purified human Factor XIa (P03951 388-625): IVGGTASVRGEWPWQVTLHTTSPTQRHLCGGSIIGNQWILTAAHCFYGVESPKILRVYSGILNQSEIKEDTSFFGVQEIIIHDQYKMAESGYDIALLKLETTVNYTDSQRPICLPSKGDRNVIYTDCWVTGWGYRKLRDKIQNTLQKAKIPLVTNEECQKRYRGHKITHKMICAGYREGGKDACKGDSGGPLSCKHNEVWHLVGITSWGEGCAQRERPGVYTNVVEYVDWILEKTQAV
Sequence of purified human Factor XIa (P03951 19-387 partner): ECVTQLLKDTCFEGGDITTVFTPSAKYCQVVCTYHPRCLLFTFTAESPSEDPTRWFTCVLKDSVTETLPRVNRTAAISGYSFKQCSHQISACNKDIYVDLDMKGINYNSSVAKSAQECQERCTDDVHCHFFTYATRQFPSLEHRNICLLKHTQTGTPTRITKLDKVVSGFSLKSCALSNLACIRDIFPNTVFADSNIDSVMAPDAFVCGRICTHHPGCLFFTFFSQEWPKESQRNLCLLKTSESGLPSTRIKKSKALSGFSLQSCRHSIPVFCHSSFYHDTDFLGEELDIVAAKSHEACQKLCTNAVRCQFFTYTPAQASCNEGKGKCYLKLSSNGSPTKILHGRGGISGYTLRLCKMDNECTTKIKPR

The assay concerns the target purified human Factor XIa (Homo sapiens (Human), UniProt P03951). The assay is described as follows: Factor XIa assay (chromogenic substrate S-2366 hydrolysis). Format: biochemical. The settings on record: substrate S-2366, pH 7.4. The method, then: The effectiveness of compounds of the present invention as inhibitors of the coagulation factors XIa, VIIa, IXa, Xa, XIIa, plasma kallikrein or thrombin, can be determined using a relevant purified serine protease, respectively, and an appropriate synthetic substrate. The rate of hydrolysis of the chromogenic or fluorogenic substrate by the relevant serine protease was measured both in the absence and presence of compounds of the present invention. […] A decrease in the rate of absorbance or fluorescence change in the presence of inhibitor is indicative of enzyme inhibition. Such methods are known to one skilled in the art. The results of this assay are expressed as the inhibitory constant, Ki.
Factor XIa determinations were made in 50 mM HEPES buffer at pH 7.4 containing 145 mM NaCl, 5 mM KCl, and 0.1% PEG 8000 (polyethylene glycol; JT Baker or Fisher Scientific). Determinations were made using purified human Factor XIa at a final concentration of 75-200 pM (Haematologic Technologies) and the synthetic substrate S-2366 (pyroGlu-Pro-Arg-pNA; CHROMOGENIX® or AnaSpec) at a concentration of 0.0002-0.001 M.
The Michaelis constant, Km, for substrate hydrolysis by each protease, was determined at 25° C. using the method of Lineweaver and Burk. Values of Ki were determined by allowing the protease to react with the substrate in the presence of the inhibitor. Reactions were allowed to go for periods of 20-180 minutes (depending on the protease) and the velocities (rate of absorbance or fluorescence change versus time) were measured. The following relationships were used to calculate Ki values: (vo−vs)/vs=I/(Ki(1+S/Km)) for a competitive inhibitor with one binding site; or vs/vo=A+((B−A)/1+((IC50/(I)n))); and Ki═IC50/(1+S/Km) for a competitive inhibitor where: […]
`COC1CCN(c2cccc3c2CCN(C(=O)c2ccc(N)cc2)C3C(=O)Nc2ccc(C(=O)O)cc2)CC1` (stereo not drawn) [Example 1, 4-(2-(4-aminobenzoyl)-5-(4-methoxypiperidin-1-yl)-1,2,3,4-tetrahydroisoquinoline-1-carboxamido)benzoic acid, bis-TFA salt] yielded a Ki of 542 nM.

Turning to `CNC(=O)c1ccc(-c2cccc3c2CCN(C(=O)[C@H]2CC[C@H](CN)CC2)C3C(=O)Nc2ccc(C(=O)O)cc2)cc1` (stereo partly drawn) [Example 4, 4-(2-((1r,4r)-4-(aminomethyl)cyclohexanecarbonyl)-5-(4-(methylcarbamoyl)phenyl)-1,2,3,4-tetrahydroisoquinoline-1-carboxamido)benzoic acid, TFA Salt], the Ki was less than 5 nM.

`CC1(C)Cc2c(-c3ccc4c(c3)OCO4)cccc2C(C(=O)Nc2ccc(C(=O)O)cc2)N1C(=O)[C@H]1CC[C@H](CN)CC1` (stereo partly drawn) [Example 16] yielded a Ki of 166 nM.

As for `CC1(C)Cc2c(-c3cc4ccccc4s3)cccc2C(C(=O)Nc2ccc(C(=O)O)cc2)N1C(=O)[C@H]1CC[C@H](CN)CC1` (stereo partly drawn) [Example 20], the affinity corresponds to a Ki of 782 nM.

`CC1(C)Cc2c(-c3ccc4ncccc4c3)cccc2C(C(=O)Nc2ccc(C(=O)O)cc2)N1C(=O)[C@H]1CC[C@H](CN)CC1` (stereo partly drawn) [Example 26] came in with a Ki of 48.3 nM.

Compound `NC[C@H]1CC[C@H](C(=O)N2CCc3ccccc3[C@H]2C(=O)Nc2ccc(C(=O)O)cc2)CC1` [Example 32, 4-((S)-2-((1r,4S)-4-(aminomethyl)cyclohexanecarbonyl)-1,2,3,4-tetrahydroisoquinoline-1-carboxamido)benzoic acid, TFA salt] gave an inhibition constant (Ki) of 84.6 nM.
